Data from BindingDB's records for doi:10.1021/jm970079r (Virginia Polytechnic Institute and State University, 1997).

Experiments:
[1] = target: T1, Amine oxidase [flavin-containing] A (Homo sapiens, UniProt P21397); experiment: Tested for inhibition- binding affinity against monoamine oxidase A catalyzed oxidation.; conditions: read-out: kon (M-1-s-1)
T1 sequence (P21397 whole entry): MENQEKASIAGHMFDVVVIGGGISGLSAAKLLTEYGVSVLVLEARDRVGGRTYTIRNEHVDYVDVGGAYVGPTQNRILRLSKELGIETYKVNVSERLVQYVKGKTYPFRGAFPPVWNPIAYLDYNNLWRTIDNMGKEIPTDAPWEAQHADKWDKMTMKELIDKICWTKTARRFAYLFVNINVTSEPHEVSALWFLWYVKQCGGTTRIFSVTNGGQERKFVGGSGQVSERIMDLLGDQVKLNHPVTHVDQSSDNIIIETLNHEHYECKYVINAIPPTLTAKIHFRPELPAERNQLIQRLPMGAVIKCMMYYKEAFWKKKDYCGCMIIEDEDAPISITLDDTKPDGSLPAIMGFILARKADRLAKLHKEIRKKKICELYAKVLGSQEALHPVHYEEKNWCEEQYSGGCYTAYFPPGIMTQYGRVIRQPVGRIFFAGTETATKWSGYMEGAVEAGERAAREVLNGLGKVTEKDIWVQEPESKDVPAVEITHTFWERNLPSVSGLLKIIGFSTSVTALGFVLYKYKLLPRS

[2] = target: T2, Amine oxidase [flavin-containing] B (Bos taurus, UniProt P56560); experiment: Tested for inhibition- binding affinity against monoamine oxidase B catalyzed oxidation.; conditions: read-out: kon (M-1-s-1)
T2 sequence (P56560 whole entry): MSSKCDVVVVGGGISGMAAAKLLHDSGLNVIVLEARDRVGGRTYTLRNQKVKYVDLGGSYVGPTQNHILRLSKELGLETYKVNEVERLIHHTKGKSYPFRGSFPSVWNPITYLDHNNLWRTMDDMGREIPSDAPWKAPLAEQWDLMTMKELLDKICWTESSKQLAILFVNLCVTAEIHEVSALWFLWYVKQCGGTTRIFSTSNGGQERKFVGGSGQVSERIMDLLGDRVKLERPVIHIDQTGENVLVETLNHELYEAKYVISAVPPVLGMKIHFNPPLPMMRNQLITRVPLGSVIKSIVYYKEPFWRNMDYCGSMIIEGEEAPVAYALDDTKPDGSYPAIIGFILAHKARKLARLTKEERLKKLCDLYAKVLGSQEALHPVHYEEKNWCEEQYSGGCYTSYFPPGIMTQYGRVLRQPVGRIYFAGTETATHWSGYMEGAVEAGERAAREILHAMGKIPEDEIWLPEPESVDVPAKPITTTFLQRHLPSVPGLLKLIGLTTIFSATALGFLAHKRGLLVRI

Structure (SMILES)	kon [1]	kon [2]
C1=C(c2ccccc2-c2ccccc2)CCN(C2CC2)C1	220000 M⁻¹ s⁻¹	–
C1=C(c2ccccc2)CCN(C2CC2)C1	50000 M⁻¹ s⁻¹	180000 M⁻¹ s⁻¹
C1=C(c2ccc3ccccc3c2)CCN(C2CC2)C1	380000 M⁻¹ s⁻¹	150000 M⁻¹ s⁻¹
C1=C(c2cccc(-c3ccccc3)c2)CCN(C2CC2)C1	680000 M⁻¹ s⁻¹	440000 M⁻¹ s⁻¹
C1=C(c2cccc3ccccc23)CCN(C2CC2)C1	400000 M⁻¹ s⁻¹	110000 M⁻¹ s⁻¹
